Measured values reported in patent US20050176115A1, “Process for the production of methionine” (Nippon Soda Co., Ltd., priority 2002, published 2005).
Like-named read-outs stand apart in the source and are kept apart here.

Assays:
[1] = cited from earlier work
[2] = by addition of inorganic alkali such as NaOH and KOH
[3] = ammonia present at an excessive amount in mole ratio to methionine; 5-50° C.; FIG. 1
Excerpt: About 20 wt % of methionine also can be dissolved in water by addition of inorganic alkali such as NaOH and KOH, while in this case it is required to neutralize with the use of acid to obtain a product in the form of salt-free solid of methionine, leading to a problem that an additional operation to remove a lot of inorganic salt waste generated from the neutralization is required.

amount of methionine that can be dissolved in water [2]: About 20 wt % | solubility of methionine [3]: increases
SMILES: CSCC[C@H](N)C(=O)O (racemic) [methionine]
water solubility ([1]; at 25° C.): 3.38 g/100 g·H2O | water solubility ([1]; at 50° C.): 6.07 g/100 g·H2O
